# In US20090306218A1, “Antimicrobial formulations” (priority 2006, published 2009):
# Like-named read-outs stand apart in the source and are kept apart here.
# Tests used:
# [1] = system: P. acnes PRP panel strains; type: cell-based, Propionibacterium acnes; settings: 200 μg per disc
# [2] = system: P. granulosum panel strains; assay: MIC assay, liquid medium, panel of propionibacteria; type: cell-based, Propionibacterium granulosum
# [3] = system: Por. gingivalis NCTC 11834; assay: MBC assay; type: cell-based, Porphyromonas gingivalis
# Method: (§1) (b) Minimum Bactericidal Concentration (MBC) Assay
# (§2) MIC and MBC assays, as described above, were carried out using the test compounds t-butyl-p-hydroquinone (TBHQ) and bismuth subsalicylate (both ex-Sigma Aldrich). The TBHQ was dissolved in ethanol and the bismuth subsalicylate in DMSO. All the experiments were conducted in triplicate.
# [4] = system: P. granulosum panel strains; assay: MBC assay, panel of propionibacteria
# Method: (§8) This assay, normally carried out after an MIC assay, determines the minimum concentration of a compound that is lethal to the micro-organism being tested.
# (§9) These samples were then individually sub-cultured on antibiotic-free agar medium, under the incubation conditions described above. Following incubation they were examined visually for microbial growth.
# [5] = system: Propionibacterium acnes NCTC 737; assay: Minimum bactericidal concentration (MBC) assay; type: cell-based; settings: P. acnes NCTC 737
# Method: as §1
# (§3) MIC, MBC and DDA assays, as described above, were carried out using the test compound t-butyl-p-hydroquinone (TBHQ) and a range of bismuth salts (all ex-Sigma Aldrich, UK).
# [6] = system: Por. gingivalis NCTC 11834; assay: MIC assay, liquid medium; type: cell-based, Porphyromonas gingivalis
# Method: (§4) (a) Minimum Inhibitory Concentration (MIC) Assay
# (§5) This is a standard international method for quantitatively assessing the antimicrobial activity of a compound in a liquid medium. The method used a sterile 96-well microtitre plate, capable of holding about 200 μl of liquid per well. […] The culture medium was as described above.
# (§6) After incubation, the microtitre plate was examined visually (with the aid of a light box) for cloudiness in each well, which would indicate microbial growth. The MIC value was recorded as the lowest concentration of test compound required to inhibit microbial growth, i.e., the lowest concentration for which the liquid in the well remained clear.
# (§7) The assays were conducted in duplicate (minimum) and included both negative (culture medium with no micro-organisms) and positive (culture medium plus diluting solvent plus micro-organism) controls.
# as §2
# [7] = system: P. granulosum panel strains; assay: Disc diffusion assay (DDA), panel of propionibacteria; type: cell-based, Propionibacterium granulosum; settings: 200 μg per disc
# [8] = system: Propionibacterium acnes NCTC 737; assay: Disc diffusion assay (DDA); type: cell-based; settings: P. acnes NCTC 737, 200 μg per disc
# Method: (d) Disc Diffusion Assay (DDA)
# This is an internationally recognised standard method for qualitatively assessing the antimicrobial activity of a compound.
# A sterile paper disc was impregnated with a sample of the test compound in a suitable solvent and 30 minutes allowed for the solvents to evaporate (where possible). The disc was then placed on an agar plate onto which the test micro-organism had been inoculated. The plate was then incubated under the conditions described above, following which it was examined visually for signs of microbial growth. […] The diameter of this zone of “inhibition” was measured using a ProtoCOL™ automated zone sizer (Synbiosis, Cambridge, UK).
# The TBHQ was dissolved in ethanol and the bismuth salts in DMSO.
# All the (S)DDA experiments were conducted in triplicate.
# DDA assays, as described above, were carried out using each of the test compounds individually. The quinone/bismuth salt combinations were then subjected to the SDDA assay described above.
# The quinones and bismuth salts were all dissolved in DMSO.
# [9] = system: P. acnes PRP panel strains; assay: MBC assay, panel of propionibacteria
# Method: as §8, §9
# [10] = system: Propionibacterium acnes NCTC 737; assay: Minimum inhibitory concentration (MIC) assay, liquid medium; type: cell-based; settings: for MIC: P. acnes NCTC 737
# Method: as §4, §5, §6, §7, §3
# [11] = system: P. acnes PRP panel strains; type: cell-based, Propionibacterium acnes; settings: for MIC: liquid medium
# [12] = P. granulosum NCTC 11865, resistance phenotype None
# [13] = P. granulosum PRP-005, resistance phenotype MLSK
# [14] = P. granulosum PRP-006, resistance phenotype MLS
# [15] = P. granulosum PRP-019, resistance phenotype MLSK
# [16] = P. granulosum PRP-021, resistance phenotype MLS
# [17] = P. granulosum PRP-043, resistance phenotype MLS
# [18] = P. granulosum PRP-044, resistance phenotype MLS
# [19] = P. granulosum PRP-055, resistance phenotype None
# [20] = P. acnes PRP-002, resistance phenotype Tet/MLS
# [21] = P. acnes PRP-003, resistance phenotype Tet
# [22] = P. acnes PRP-004, resistance phenotype Tet
# [23] = P. acnes PRP-007, resistance phenotype Clin
# [24] = P. acnes PRP-008, resistance phenotype Clin
# [25] = P. acnes PRP-010, resistance phenotype MLSK
# [26] = P. acnes PRP-017, resistance phenotype MLS
# [27] = P. acnes PRP-023, resistance phenotype MLSK
# [28] = P. acnes PRP-026, resistance phenotype MLS
# [29] = P. acnes PRP-039, resistance phenotype Tet/MLS
# [30] = P. acnes PRP-046, resistance phenotype None
# [31] = P. acnes PRP-053, resistance phenotype Tet/MLS
# [32] = P. acnes PRP-059, resistance phenotype MLS
# [33] = P. acnes PRP-068, resistance phenotype Ery
# [34] = P. acnes PRP-101, resistance phenotype Tet/MLS
# [35] = P. acnes PRP-102, resistance phenotype Tet/MLS
structure (smiles),measurement,setting,value
"CC(C)(C)c1cc(O)ccc1O [TBHQ, t-butyl-p-hydroquinone]",DDA (zone diameter),[1]; P. acnes PRP-002,18.12 mm
same,DDA (zone diameter),[1]; P. acnes PRP-003,18.12 mm
same,DDA (zone diameter),[1]; P. acnes PRP-004,19.88 mm
same,DDA (zone diameter),[1]; P. acnes PRP-007,12.74 mm
same,DDA (zone diameter),[1]; P. acnes PRP-008,17.92 mm
same,DDA (zone diameter),[1]; P. acnes PRP-010,18.54 mm
same,DDA (zone diameter),[1]; P. acnes PRP-017,13.98 mm
same,DDA (zone diameter),[1]; P. acnes PRP-023,18.54 mm
same,DDA (zone diameter),[1]; P. acnes PRP-026,13.98 mm
same,DDA (zone diameter),[1]; P. acnes PRP-039,17.71 mm
same,DDA (zone diameter),[1]; P. acnes PRP-046,20.71 mm
same,DDA (zone diameter),[1]; P. acnes PRP-053,17.09 mm
same,DDA (zone diameter),[1]; P. acnes PRP-059,19.88 mm
same,DDA (zone diameter),[1]; P. acnes PRP-068,16.78 mm
same,DDA (zone diameter),[1]; P. acnes PRP-101,12.84 mm
same,DDA (zone diameter),[1]; P. acnes PRP-102,14.50 mm
same,MIC,[2]; [12],3.9 µg/mL
same,MIC,[2]; [13],62.5 µg/mL
same,MIC,[2]; [14],7.8 µg/mL
same,MIC,[2]; [15],31.25 µg/mL
same,MIC,[2]; [16],15.6 µg/mL
same,MIC,[2]; [17],15.6 µg/mL
same,MIC,[2]; [18],15.6 µg/mL
same,MIC,[2]; [19],3.9 µg/mL
same,MBC,[3],0.49 µg/mL
same,MIC/MBC ratio,[3],<1
same,MBC,[4]; [12],7.8 µg/mL
same,MBC,[4]; [13],62.5 µg/mL
same,MBC,[4]; [14],7.8 µg/mL
same,MBC,[4]; [15],31.25 µg/mL
same,MBC,[4]; [16],31.25 µg/mL
same,MBC,[4]; [17],15.6 µg/mL
same,MBC,[4]; [18],31.25 µg/mL
same,MBC,[4]; [19],7.8 µg/mL
same,MBC,[5]; Table 1,7.8 µg/mL
same,MIC/MBC ratio,[5]; Table 1,1
same,MBC,"[5]; separate experiment, Table 3",7.8 µg/mL
same,MIC/MBC ratio,"[5]; separate experiment, Table 3",1
same,MIC,[6]; Por. gingivalis NCTC 11834,<0.49 µg/mL
same,activity against Por. gingivalis NCTC 11834 (in words),"[6]; compound alone, data of Table 8",active
same,DDA (zone diameter),[7]; P. granulosum NCTC 11865,11.50 mm
same,DDA (zone diameter),[7]; P. granulosum PRP-005,10.67 mm
same,DDA (zone diameter),[7]; P. granulosum PRP-006,9.42 mm
same,DDA (zone diameter),[7]; P. granulosum PRP-019,10.36 mm
same,DDA (zone diameter),[7]; P. granulosum PRP-021,0.00 mm
same,DDA (zone diameter),[7]; P. granulosum PRP-043,0.00 mm
same,DDA (zone diameter),[7]; P. granulosum PRP-044,0.00 mm
same,DDA (zone diameter),[7]; P. granulosum PRP-055,18.02 mm
same,DDA (zone of inhibition diameter),[8]; Table 2,11.04 mm
same,DDA (zone of inhibition diameter),"[8]; separate experiment, Table 4",14.68 mm
same,MBC,[9]; [20],7.8 µg/mL
same,MBC,[9]; [21],7.8 µg/mL
same,MBC,[9]; [22],7.8 µg/mL
same,MBC,[9]; [23],7.8 µg/mL
same,MBC,[9]; [24],7.8 µg/mL
same,MBC,[9]; [25],15.6 µg/mL
same,MBC,[9]; [26],7.8 µg/mL
same,MBC,[9]; [27],7.8 µg/mL
same,MBC,[9]; [28],7.8 µg/mL
same,MBC,[9]; [29],7.8 µg/mL
same,MBC,[9]; [30],7.8 µg/mL
same,MBC,[9]; [31],7.8 µg/mL
same,MBC,[9]; [32],7.8 µg/mL
same,MBC,[9]; [33],7.8 µg/mL
same,MBC,[9]; [34],7.8 µg/mL
same,MBC,[9]; [35],15.6 µg/mL
same,MIC,[10]; Table 1,7.8 µg/mL
same,MIC,"[10]; separate experiment, Table 3",7.8 µg/mL
same,activity against P. acnes NCTC 737 (in words),"[10]; compound alone, data of Tables 1 and 2",active
same,MIC,[11]; [20],3.9 µg/mL
same,MIC,[11]; [21],7.8 µg/mL
same,MIC,[11]; [22],1.95 µg/mL
same,MIC,[11]; [23],3.9 µg/mL
same,MIC,[11]; [24],3.9 µg/mL
same,MIC,[11]; [25],3.9 µg/mL
same,MIC,[11]; [26],3.9 µg/mL
same,MIC,[11]; [27],3.9 µg/mL
same,MIC,[11]; [28],3.9 µg/mL
same,MIC,[11]; [29],3.9 µg/mL
same,MIC,[11]; [30],1.95 µg/mL
same,MIC,[11]; [31],3.9 µg/mL
same,MIC,[11]; [32],3.9 µg/mL
same,MIC,[11]; [33],3.9 µg/mL
same,MIC,[11]; [34],3.9 µg/mL
same,MIC,[11]; [35],7.8 µg/mL
same,activity against the panel of propionibacteria (in words),[11]; P. acnes and P. granulosum strains of Tables 6 and 7,active against all of the propionibacterial strains tested
